Experimental data reported in patent US12673947B2 (Cytosinlab Therapeutics Co., Ltd., priority 2020, dated 2026).

What was measured:
FLT3 = target: T1, FLT3 (Homo sapiens, UniProt P36888); experiment: FLT3 kinase in vitro inhibitory activity experiment (Caliper mobility shift, conversion rate); assay type: biochemical; details: IC50 class, read-out: Enzyme activity FLT3
T1 construct: purchased Carna 08-145
T1 sequence (P36888 27-993): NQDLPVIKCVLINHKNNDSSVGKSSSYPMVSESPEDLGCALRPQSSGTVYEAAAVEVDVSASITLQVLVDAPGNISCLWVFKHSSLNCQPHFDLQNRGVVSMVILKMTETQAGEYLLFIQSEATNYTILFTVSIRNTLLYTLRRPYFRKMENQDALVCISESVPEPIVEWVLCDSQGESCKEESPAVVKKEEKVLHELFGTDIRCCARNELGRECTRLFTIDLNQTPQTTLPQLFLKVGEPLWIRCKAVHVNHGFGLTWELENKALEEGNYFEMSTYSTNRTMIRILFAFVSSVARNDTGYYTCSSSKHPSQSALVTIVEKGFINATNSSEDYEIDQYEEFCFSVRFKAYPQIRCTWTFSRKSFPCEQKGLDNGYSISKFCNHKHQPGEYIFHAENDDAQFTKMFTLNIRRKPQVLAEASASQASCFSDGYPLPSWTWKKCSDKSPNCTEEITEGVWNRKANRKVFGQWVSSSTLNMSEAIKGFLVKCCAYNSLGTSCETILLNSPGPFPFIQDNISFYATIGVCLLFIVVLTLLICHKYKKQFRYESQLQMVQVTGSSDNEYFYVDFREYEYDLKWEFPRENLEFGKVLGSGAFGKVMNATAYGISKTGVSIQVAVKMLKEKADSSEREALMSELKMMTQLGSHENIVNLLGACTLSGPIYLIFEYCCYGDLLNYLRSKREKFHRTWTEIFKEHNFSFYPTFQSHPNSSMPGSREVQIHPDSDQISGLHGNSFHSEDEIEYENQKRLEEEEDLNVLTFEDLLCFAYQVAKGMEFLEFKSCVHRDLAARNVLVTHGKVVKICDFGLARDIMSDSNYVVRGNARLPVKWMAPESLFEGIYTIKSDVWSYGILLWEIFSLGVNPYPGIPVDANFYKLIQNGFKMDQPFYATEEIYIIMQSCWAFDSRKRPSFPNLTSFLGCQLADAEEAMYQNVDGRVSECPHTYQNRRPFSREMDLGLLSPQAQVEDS
Method in brief: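 Tested in single wells as ten 3-fold dilutions of a 1 μM initial stock. Compound and FLT3 stood 10 min at room temperature; ATP with Kinase substrate 2 was then added for 30 min at room temperature and the reaction stopped. Conversion was measured by Caliper mobility shift, and inhibition was normalised to control-well conversion.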

MV4;11 cells = experiment: MV4;11 in vitro inhibition of proliferation assay (CellTiter-Glo, 72 hours); assay type: cell-based; details: Homo sapiens, MV4-11, 72 h, IC50 class, read-out: Inhibitory activity of cell proliferation MV4;11
Method in brief: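 IC50 came from four-parameter fitting of inhibition rates, based on CellTiter-Glo luminescence after 72 hours at 37° C. Each well held 2000 MV4;11 cells grown in IMDM with 10% serum. Compounds formed a nine-point, threefold DMSO series starting at 10 uM, tested in triplicate at 0.3% final DMSO.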

| Compound | IC50 (FLT3) | IC50 (MV4;11 cells) |
| --- | --- | --- |
| CCc1nc2c(N)ncc(-c3cnn(-c4ccn(C)c(=O)c4)c3)c2nc1N[C@@H]1CC[C@H](O)C1 [Compound 296] | ≤ 0.01 µM | ≤ 0.01 µM |
| CCc1nc2c(N)ncc(-c3cnn(-c4cc(C)n(C)c(=O)c4)c3)c2nc1N[C@@H]1CC[C@H](O)C1 [Compound 299] | ≤ 0.01 µM | 0.01 to 0.1 µM |
| CCc1nc2c(N)ncc(-c3cnn(-c4ccc(=O)n(C)c4)c3)c2nc1N[C@@H]1CC[C@H](O)C1 [Compound 301] | ≤ 0.01 µM | ≤ 0.01 µM |
| CCc1nc2c(N)ncc(-c3cnn(-c4ccc(C)cc4)c3)c2nc1N[C@@H]1CC[C@H](O)C1 [Compound 303] | ≤ 0.01 µM | 0.01 to 0.1 µM |
| CCc1nc2c(N)ncc(-c3cnn(-c4cc(C)ncn4)c3)c2nc1N[C@@H]1CC[C@H](O)C1 [Compound 304] | ≤ 0.01 µM | ≤ 0.01 µM |
| CCc1nc2c(N)ncc(-c3cnn(-c4ccnnc4)c3)c2nc1N[C@@H]1CC[C@H](O)C1 [Compound 306] | ≤ 0.01 µM | ≤ 0.01 µM |
| CCc1nc2c(N)ncc(-c3cnn(-c4ccnc(OC)c4)c3)c2nc1N[C@@H]1CC[C@H](O)C1 [Compound 309] | ≤ 0.01 µM | ≤ 0.01 µM |
| CCc1nc2c(N)ncc(-c3ccc(-c4ccc(C5CCN(C)CC5)cc4)c(OC)c3)c2nc1N[C@@H]1CC[C@H](O)C1 [Compound 313] | ≤ 0.01 µM | 0.01 to 0.1 µM |
| CCc1nc2c(N)ncc(-c3cnn(-c4ccnc(CO)c4)c3)c2nc1N[C@@H]1CC[C@H](O)C1 [Compound 318] | ≤ 0.01 µM | ≤ 0.01 µM |
| CCc1nc2c(N)ncc(-c3ccc(N4CCC(N5CC6CCC(C5)N6)CC4)c(OC)c3)c2nc1NC1CCOCC1 [Compound 319, 8-(4-(4-(3,8-diazabicyclo[3.2.1]octane-3-yl)piperidin-1-yl)-3-methoxyphenyl)-3-ethyl-N2-(tetrahydro-2H-pyran-pyridin-4-yl)pyridino [3,4-b]pyrazine-2,5-diamine] | ≤ 0.01 µM | 0.01 to 0.1 µM |
| CCc1nc2c(N)ncc(-c3ccc(N4CCC(N5CCN(C)CC5)CC4C)c(OC)c3)c2nc1NC1CCOCC1 (centres unmarked) [Compound 322] | ≤ 0.01 µM | 0.01 to 0.1 µM |
| CCc1nc2c(N)ncc(-c3ccc(N4CCC(N5CC[C@@H](NC)C5)CC4)c(OC)c3)c2nc1NC1CCOCC1 [Compound 323] | ≤ 0.01 µM | 0.01 to 0.1 µM |
| CCc1nc2c(N)ncc(-c3ccc(N4CCC(N5CC[C@H](NC)C5)CC4)c(OC)c3)c2nc1NC1CCOCC1 [Compound 324] | ≤ 0.01 µM | 0.01 to 0.1 µM |
| CCc1nc2c(N)ncc(-c3ccc(N4CCC(N5C6CCC5CN(C)C6)CC4)c(OC)c3)c2nc1NC1CCOCC1 [Compound 327, 3-ethyl-8-(3-methoxy-4-(4-(3-methyl-3,8-diazabicyclo[3.2.1]octyl-8-yl)piperidin-1-yl)phenyl)-N2-(tetrahydro-2H-pyran-4-yl)pyridino[3,4-b]pyrazine-2,5-diamine] | ≤ 0.01 µM | 0.01 to 0.1 µM |
| CCc1nc2c(N)ncc(-c3cnn(-c4ccc(C(C)(C)O)nc4)c3)c2nc1N[C@@H]1CC[C@H](O)C1 [Compound 329] | ≤ 0.01 µM | ≤ 0.01 µM |
| CCc1nc2c(N)ncc(-c3cnn(-c4ccc(C(C)(C)O)cc4)c3)c2nc1N[C@@H]1CC[C@H](O)C1 [Compound 333] | ≤ 0.01 µM | ≤ 0.01 µM |
| CCc1nc2c(N)ncc(-c3cnn(-c4ncc(C#N)cn4)c3)c2nc1N[C@@H]1CC[C@H](O)C1 [Compound 335] | ≤ 0.01 µM | ≤ 0.01 µM |
| CCc1nc2c(N)ncc(-c3cnn(-c4cnc(C#N)nc4)c3)c2nc1N[C@@H]1CC[C@H](O)C1 [Compound 338] | ≤ 0.01 µM | ≤ 0.01 µM |

More lines, now with the values ahead:

| IC50 (FLT3) | IC50 (MV4;11 cells) | Compound |
| --- | --- | --- |
| ≤ 0.01 µM | ≤ 0.01 µM | CCc1nc2c(N)ncc(-c3cnn(-c4cccnc4)c3)c2nc1N[C@@H]1CC[C@H](O)C1 [Compound 302] |
| ≤ 0.01 µM | ≤ 0.01 µM | CCc1nc2c(N)ncc(-c3cnn(-c4ccnc(C(C)(C)O)c4)c3)c2nc1N[C@@H]1CC[C@H](O)C1 [Compound 308] |
| ≤ 0.01 µM | 0.01 to 0.1 µM | CCc1nc2c(N)ncc(-c3cnn(-c4ccnc(N5CCCC5)c4)c3)c2nc1N[C@@H]1CC[C@H](O)C1 [Compound 310] |
| ≤ 0.01 µM | ≤ 0.01 µM | CCc1nc2c(N)ncc(-c3cnn(-c4ccc(CNC)cc4)c3)c2nc1N[C@@H]1CC[C@H](O)C1 [Compound 311] |
| ≤ 0.01 µM | 0.01 to 0.1 µM | CCc1nc2c(N)ncc(-c3ccc(-c4cnn(C5CCN(C)CC5)c4)c(OC)c3)c2nc1N[C@@H]1CC[C@H](O)C1 [Compound 312, (1S, 3R)-3-((5-amino-3-ethyl-8-(3-methoxy-4-(1-(1-methylpiperidin-4-yl)-1H-pyrazol-4-yl)phenyl)pyridino [3,4-b]pyrazin-2-yl)amino) cyclopentan-1-ol] |
| 0.01 to 0.1 µM | 0.01 to 0.1 µM | CCc1nc2c(N)ncc(-c3ccc(N4CCC(N5CCCN(C)CC5)CC4)c(OC)c3)c2nc1NC1CCOCC1 [Compound 314] |
| ≤ 0.01 µM | 0.01 to 0.1 µM | CCc1nc2c(N)ncc(-c3ccc(N4CCC(N5CCN(CC)CC5)CC4)c(OC)c3)c2nc1NC1CCOCC1 [Compound 315, 3-ethyl-8-(4-(4-(4-ethylpiperazine-1-yl)piperidine-1-yl)-3-methoxyphenyl)-N2-(tetrahydro-2H-pyran-4-yl)pyridino[3,4-b]pyrazine-2,5-diamine] |
| ≤ 0.01 µM | 0.01 to 0.1 µM | CCc1nc2c(N)ncc(-c3ccc(N4CCC(N5CCN(CC(F)F)CC5)CC4)c(OC)c3)c2nc1NC1CCOCC1 [Compound 321] |
| ≤ 0.01 µM | 0.01 to 0.1 µM | CCc1nc2c(N)ncc(-c3ccc(N4CCC(N5CCN(CC)CC5)CC4)c(OC)c3)c2nc1N[C@H]1CCOC1 [Compound 325] |
| 0.01 to 0.1 µM | 0.01 to 0.1 µM | CCc1nc2c(N)ncc(-c3ccc(N4CCC(N5CCN(CCC#N)CC5)CC4)c(OC)c3)c2nc1NC1CCOCC1 [Compound 326] |
| ≤ 0.01 µM | 0.01 to 0.1 µM | CCc1nc2c(N)ncc(-c3ccc(N4CCC(N5CCC(C)(O)CC5)CC4)c(OC)c3)c2nc1NC1CCOCC1 [Compound 328] |
| ≤ 0.01 µM | 0.01 to 0.1 µM | CCc1nc2c(N)ncc(-c3cnn(-c4ncc(C(C)(C)O)cn4)c3)c2nc1N[C@@H]1CC[C@H](O)C1 [Compound 330] |
| ≤ 0.01 µM | ≤ 0.01 µM | CCc1nc2c(N)ncc(-c3cnn(-c4cnc(C(C)(C)O)nc4)c3)c2nc1N[C@@H]1CC[C@H](O)C1 [Compound 331] |
| ≤ 0.01 µM | ≤ 0.01 µM | CCc1nc2c(N)ncc(-c3cnn(-c4cnc(C(C)(C)O)cn4)c3)c2nc1N[C@@H]1CC[C@H](O)C1 [Compound 332] |
| ≤ 0.01 µM | ≤ 0.01 µM | CCc1nc2c(N)ncc(-c3cnn(-c4ccc(C#N)cc4)c3)c2nc1N[C@@H]1CC[C@H](O)C1 [Compound 336] |
| ≤ 0.01 µM | 0.01 to 0.1 µM | CCc1nc2c(N)ncc(-c3cnn(-c4ccc(C#N)nn4)c3)c2nc1N[C@@H]1CC[C@H](O)C1 [Compound 337] |
| ≤ 0.01 µM | 0.01 to 0.1 µM | CCc1nc2c(N)ncc(-c3cnn(-c4cnc(C#N)cn4)c3)c2nc1N[C@@H]1CC[C@H](O)C1 [Compound 339] |
| ≤ 0.01 µM | 0.01 to 0.1 µM | CCc1nc2c(N)ncc(-c3cnn(-c4ccc(C(F)F)nc4)c3)c2nc1N[C@@H]1CC[C@H](O)C1 [Compound 340] |
| ≤ 0.01 µM | ≤ 0.01 µM | CCc1nc2c(N)ncc(-c3cnn(-c4ncc(F)cn4)c3)c2nc1N[C@@H]1CC[C@H](O)C1 [Compound 341] |
